Where “and” joins values, the source holds several entries; their conditions need not be identical. Equal values may be shown once. Read-outs that look alike come from different tables or passages of the source.
How the values were obtained:
[1] = Daily renal clearance rate (Clrenal) and serum-to-urine ratio from paired serum and urine; assay type: in vivo, human; details: for Ratio of serum-to-urine concentrations (S/U), GM: all samples; for Clrenal, GM / Clrenal, range: all workers; for Clrenal, range: minimum on the basis of LOD/2; for Renal clearance rate (PFOA) / Renal clearance rate (PFOS): individual workers
Source text: The positive correlations between the PFAAs in the serum and the paired urine samples were highly statistically significant, with correlation coefficients of 0.87, 0.64, and 0.72 for PFHxS, PFOA, and PFOS, respectively, (p < 0.01). […] Additionally, the relative abundances of PFOS, PFHxS, and PFOA between the serum and paired urine samples were quite different. The relative abundances in the serum are 64%, 24%, and 12%, respectively, while those in the urine were 19%, 31%, and 40%, respectively. […] Moreover, the ratio of serum-to-urine concentrations (S/U) might be an indicator for PFAA excretion in humans because PFAAs could concentrate in serum while urine excretion is considered an important PFAA elimination pathway. The GM values of S/U for PFHxS, PFOA, and PFOS in all samples were 697, 288, and 1782, respectively, indicating the difficulty in PFAA renal elimination from the workers. To exclude the potential effect of individual differences related to demographic information such as body weight and gender, the daily renal clearance rate (Clrenal) was introduced in the study. Clrenal is a parameter defined in Eq (3) that adjusts the S/U through body weight and the gender-specific daily urine excretion volume.
Paired samples with either concentration under the LOD were set as LOD/2 in the Clrenal study. The urine excretion volumes of males and females were set at 1.4 and 1.2 L/day in the study, respectively, and the body weight values of individual workers were obtained from our questionnaires. The calculated Clrenal values for PFHxS, PFOA, PFOS ranged from 2.0 × 10^−4 to 2.3, 9.0 × 10^−5 to 2.4, and 5.0 × 10^−5 to 0.54 mL day^−1 kg^−1 with GM values of 0.023, 0.067 and 0.010 mL day^−1 kg^−1, respectively (Fig. 3). The minimum values of the PFAAs Clrenal were calculated on the basis of LOD/2 instead of ND (not detected) in the present study. […] However, Zhang et al. observed that the Clrenal of PFHxS was the lowest among these 3 type of PFAAs[28]. The median Clrenal of PFAAs in the present study was similar to that of Zhou et al.’s study (0.012 mL day^−1 kg^−1 for PFHxS, 0.061 mL day^−1 kg^−1 for PFOA, and 0.010 mL day^−1 kg^−1 for PFOS)[39]. In contrast, as noted elsewhere, the Clrenal values of PFOA were the highest among those of the three PFAAs[28][38]. The most recent study on the elevated serum concentrations of PFAAs in fishery employees from Tangxun Lake also stated that the median Clrenal of PFOA (0.061 mL day^−1 kg^−1) was higher than those of the PFHxS and PFOS (0.012 and 0.010 mL day^−1 kg^−1)[39]. […] Moreover, the renal clearance rates of PFAAs in humans were not obviously influenced by the PFAAs level in the serum. […] In addition, gender could not be discounted. The Clrenal values of PFOS for the male workers were significant lower than those for the females (p < 0.01). Wong et al. studied the elimination rate constant of PFOS in a USA population and speculated that there might be other sex-specific elimination routes other than menstruation between men and women. No significant differences were found between the Clrenal values of PFOA and PFHxS for the males and females tested in the study.

[2] = Half-life estimated by daily clearance rates (first-order model, k = Cltotal/Vd); assay type: in vivo, human; details: for half-life: human, serum and urine, other: occupational exposure
Source text: Olsen et al.[21] found linear relationship between the logarithm of serum PFAAs concentration and time, and a first order model was adopted to estimate the half-lives of PFAAs. The elimination of PFAAs in humans was also described with the following equation: […]
If we set C(t) as 1/2C0, then the half-life
where k is the elimination rate constant. We calculated k using two approaches in the present study. In the first approach, k is defined as Cltotal/Vd, where Vd stands for the volume of distribution of PFAAs in the human body. Cltotal represents the total daily PFAAs clearance in the human body; for men and women older than 50, it refers to renal clearance, while for young women, it is defined as the sum of menstrual clearance and renal clearance. To keep consistency with other studies, Vd of PFOS and PFHxS were set at 230 mL kg^−1, and Vd of PFOA was set at 170 mL kg^−1 in this study. In the second approach, k is defined as the average annual decline rates of PFAAs in workers who participated in this study.
We used a first order model to estimate the half-lives of PFAAs in workers (Eq (2)). k was defined as […], where Cltotal referred to renal clearance for men and women older than 50 and to the sum of menstrual clearance and renal clearance for young women. According to Eq (2), the half-lives of PFHxS, PFOA, and PFOS for the occupational workers tested ranged from 0.51–3799 years, 0.44–3663 years, and 0.76–30475 years, with GM and median values of 14.7 and 11.7, 4.1 and 4.0, 32.6 and 21.6 years, respectively (Table 2). […] The GM values of the half-lives of PFHxS, PFOA, and PFOS for men here were 19.9, 4.7, and 60.9 years, respectively, while those for women were 7.5, 3.1, and 8.0 years, respectively. The half-lives estimated by the limited clearance route information could be considered as the upper limits for PFAAs. It seemed likely that the unrealistically long half-life estimates derived from the urinary data were actually evidence of the contribution of fecal elimination to the clearance of these chemicals. The extremely long half-lives of PFAAs, such as 3799 years for PFHxS, 3663 years for PFOA, and 30475 years for PFOS, were caused by the application of LOD/2 instead of ND in workers’ urine samples. The geometric mean or median value of the PFAAs half-lives can better reflect the actual situation.

[3] = Female workers, number 71, menstrual clearance added to renal clearance
[4] = Male workers, number 136, renal clearance
[5] = both sexes, Total workers, number 207, read-out: Half-life estimated through daily elimination, GM (converted)
[6] = both sexes, Total workers, number 207, read-out: Half-life estimated through daily elimination, Median (converted)
[7] = female, Female workers, number 71, menstrual clearance added to renal clearance, read-out: Half-life estimated through daily elimination, GM (converted)
[8] = male, Male workers, number 136, renal clearance, read-out: Half-life estimated through daily elimination, Median (converted)

Row | SMILES | Ratio of serum-to-urine concentrations (S/U), GM [1] | Clrenal, GM [1] [mL/day/kg] | Clrenal, range [1] | Half-life estimated through daily elimination, Max [2, 3] [years] | Half-life estimated through daily elimination, Median [2, 3] [years] | Half-life estimated through daily elimination, Min [2, 3] [years] | Half-life estimated through daily elimination, Min [2, 4] [years] | Half-life estimated through daily elimination, Min ([2]; Total workers, number 207) [years] | half-life [2, 5] [days] | half-life [2, 6] [days] | half-life [2, 7] [days] | half-life [2, 8] [days] | also measured
1 | O=C(O)C(F)(F)C(F)(F)C(F)(F)C(F)(F)C(F)(F)C(F)(F)C(F)(F)F [PFOA, perfluorooctanoic acid] | 288 | 0.067 | 9.0 × 10^−5 to 2.4 mL day^−1 kg^−1 | 11.1 | 2.8 | 0.44 | 0.48 | 0.44 | 1500 | 1460 | 1130 | 1610 | Renal clearance rate (PFOA) ([1]; sampling year 2008): 0.093 mL/day/kg and 0.043 mL/day/kg and 0.141 mL/day/kg and 0.074 mL/day/kg and 0.069 mL/day/kg and 0.087 mL/day/kg and 0.012 mL/day/kg and 0.060 mL/day/kg and 0.127 mL/day/kg and 0.027 mL/day/kg and 0.068 mL/day/kg and 0.030 mL/day/kg and 0.111 mL/day/kg and 0.033 mL/day/kg and 0.047 mL/day/kg and 0.161 mL/day/kg and 0.052 mL/day/kg and 0.214 mL/day/kg and 0.096 mL/day/kg and 0.055 mL/day/kg and 0.042 mL/day/kg and 0.106 mL/day/kg and 0.021 mL/day/kg and 0.157 mL/day/kg and 0.058 mL/day/kg and 0.034 mL/day/kg; Renal clearance rate (PFOA) ([1]; sampling year 2009): 0.174 mL/day/kg and 0.318 mL/day/kg and 0.286 mL/day/kg and 0.110 mL/day/kg and 0.366 mL/day/kg and 0.046 mL/day/kg and 0.403 mL/day/kg and 0.070 mL/day/kg and 0.128 mL/day/kg and 0.090 mL/day/kg and 0.114 mL/day/kg and 0.071 mL/day/kg and 0.289 mL/day/kg and 0.235 mL/day/kg and 0.096 mL/day/kg and 0.264 mL/day/kg and 0.117 mL/day/kg and 0.057 mL/day/kg and 0.051 mL/day/kg and 0.262 mL/day/kg and 0.197 mL/day/kg and 0.077 mL/day/kg and 0.363 mL/day/kg; Renal clearance rate (PFOA) ([1]; sampling year 2011): 0.101 mL/day/kg and 0.205 mL/day/kg and 0.124 mL/day/kg and 0.077 mL/day/kg and 0.096 mL/day/kg and 0.081 mL/day/kg and 0.014 mL/day/kg and 0.080 mL/day/kg and 0.027 mL/day/kg and 0.082 mL/day/kg and 0.120 mL/day/kg and 0.066 mL/day/kg and 0.057 mL/day/kg and 0.037 mL/day/kg and 0.063 mL/day/kg and 0.270 mL/day/kg and 0.075 mL/day/kg and 0.060 mL/day/kg and 0.085 mL/day/kg and 0.181 mL/day/kg and 0.107 mL/day/kg and 0.258 mL/day/kg and 0.674 mL/day/kg and 0.290 mL/day/kg and 0.300 mL/day/kg and 0.058 mL/day/kg; Renal clearance rate (PFOA) ([1]; sampling year 2012): 0.089 mL/day/kg and 0.052 mL/day/kg and 0.038 mL/day/kg and 0.045 mL/day/kg and 0.082 mL/day/kg and 0.114 mL/day/kg and 0.012 mL/day/kg and 0.044 mL/day/kg and 0.098 mL/day/kg and 0.049 mL/day/kg and 0.030 mL/day/kg and 0.027 mL/day/kg and 0.029 mL/day/kg and 0.054 mL/day/kg and 0.033 mL/day/kg and 0.199 mL/day/kg and 0.105 mL/day/kg and 0.069 mL/day/kg and 0.236 mL/day/kg and 0.139 mL/day/kg and 0.040 mL/day/kg and 0.084 mL/day/kg and 0.170 mL/day/kg; half-life ([2]; male, Male workers, number 136, renal clearance, read-out: Half-life estimated through daily elimination, GM (converted)): 1720 days
2 | O=S(=O)(O)C(F)(F)C(F)(F)C(F)(F)C(F)(F)C(F)(F)C(F)(F)C(F)(F)C(F)(F)F [PFOS, perfluorooctanesulfonate] | 1782 | 0.010 | 5.0 × 10^−5 to 0.54 mL day^−1 kg^−1 | 15.1 | 9.4 | 0.76 | 2.7 | 0.76 | – | – | – | – | Renal clearance rate (PFOS) ([1]; sampling year 2009): 0.028 mL/day/kg and 0.066 mL/day/kg and 0.010 mL/day/kg and 0.013 mL/day/kg and 0.009 mL/day/kg and 0.037 mL/day/kg and 0.018 mL/day/kg and 0.001 mL/day/kg and 0.035 mL/day/kg and 0.004 mL/day/kg and 0.005 mL/day/kg and 0.006 mL/day/kg and 0.003 mL/day/kg and 0.019 mL/day/kg and 0.023 mL/day/kg and 0.007 mL/day/kg and 0.017 mL/day/kg and 0.024 mL/day/kg and 0.030 mL/day/kg and 0.014 mL/day/kg and 0.002 mL/day/kg and 0.032 mL/day/kg; Renal clearance rate (PFOS) ([1]; sampling year 2010): 0.038 mL/day/kg and 0.013 mL/day/kg and 0.014 mL/day/kg and 0.058 mL/day/kg and 0.002 mL/day/kg and 0.004 mL/day/kg and 0.048 mL/day/kg and 0.039 mL/day/kg and 0.008 mL/day/kg and 0.005 mL/day/kg and 0.028 mL/day/kg and 0.009 mL/day/kg and 0.041 mL/day/kg and 0.007 mL/day/kg and 0.027 mL/day/kg and 0.026 mL/day/kg and 0.006 mL/day/kg and 0.034 mL/day/kg and 0.083 mL/day/kg and 0.020 mL/day/kg and 0.017 mL/day/kg and 0.025 mL/day/kg and 0.010 mL/day/kg; Renal clearance rate (PFOS) ([1]; sampling year 2011): 0.007 mL/day/kg and 0.009 mL/day/kg and 0.024 mL/day/kg and 0.052 mL/day/kg and 0.018 mL/day/kg and 0.016 mL/day/kg and 0.028 mL/day/kg and 0.021 mL/day/kg and 0.017 mL/day/kg and 0.029 mL/day/kg and 0.004 mL/day/kg and 0.006 mL/day/kg and 0.003 mL/day/kg and 0.025 mL/day/kg and 0.001 mL/day/kg and 0.013 mL/day/kg and 0.023 mL/day/kg and 0.022 mL/day/kg and 0.020 mL/day/kg and 0.033 mL/day/kg and 0.002 mL/day/kg and 0.091 mL/day/kg and 0.039 mL/day/kg and 0.041 mL/day/kg; Half-life estimated through daily elimination, GM [2, 3]: 8.0 years
3 | O=S(=O)(O)C(F)(F)C(F)(F)C(F)(F)C(F)(F)C(F)(F)C(F)(F)F [PFHxS, perfluorohexane sulfonate] | 697 | 0.023 | 2.0 × 10^−4 to 2.3 mL day^−1 kg^−1 | 15.1 | – | 2.8 | 0.51 | 0.51 | 5370 | 4270 | 2740 | 5300 | half-life ([2]; female, Female workers, number 71, menstrual clearance added to renal clearance, read-out: Half-life estimated through daily elimination, Median (converted)): 2780 days

Reference: paper PMC5131319, “Occurrence, temporal trends, and half-lives of perfluoroalkyl acids (PFAAs) in occupational workers in China” (Scientific Reports, 2016)
